Test [1] can be described thus: Cytotoxicity against human Hep G2.2.15 cells. It is filed as functional. Particulars: HepG2 2.2.15.
The nature of test [2]: Selectivity index, ratio of CC50 for human Hep G2.2.15 cells to IC50 for HBV e antigen secretion in HBV transfected Hep G2.2.15 cells. Type of test: functional.
The test system of test [3] is Hepatitis B virus. Nature of the test: Antiviral activity against HBV transfected Hep G2.2.15 cells assessed as inhibition of e antigen HBsAg secretion. It is filed as functional, organism-based. The note with it: HepG2 2.2.15.
For test [4], the system named is Hepatitis B virus. Nature of the test: Antiviral activity against HBV transfected Hep G2.2.15 cells assessed as inhibition of surface antigen HBsAg secretion. Type of test: functional, organism-based. Particulars: HepG2 2.2.15.
The nature of test [5]: Selectivity index, ratio of CC50 for human Hep G2.2.15 cells to IC50 for surface antigen HBsAg secretion in HBV transfected Hep G2.2.15 cells. Type of test: functional.

The CC50 is the concentration that lowers cell viability or growth by half. The low end stands for greater toxicity to the cells, the high end for lower toxicity to the cells. A word on the IC50: it is the concentration that inhibits the measured activity by half. As to `COC1=CC(=O)[C@]2([C@@H](Cl)C[C@@]34C(OC)=C(OC)C(=O)C[C@@]23CCN4C)[C@H]1O` [DAURICUMINE], in test [1], the midpoint of cytotoxicity, the CC50, lay at 2190 µM. Also, the figures for the “Ratio CC50/IC50” value in test [2] and in test [5] were <1 and 1.67, respectively. Moreover, the IC50 in the test with Hepatitis B virus [3] is > 3290 µM; in the test with Hepatitis B virus [4], 1310 µM.

`COc1cc2c3c(c1O)C1(C=CC(=O)C=C1)CC3N(C)CC2` (centres undefined) [GLAZIOVINE] came in with a CC50 in test [1] of 7 µM. Also, the “Ratio CC50/IC50” value in test [2] and in test [5] was <1 each time. Also, the results for the concentration for half-maximal inhibition (IC50) in the test with Hepatitis B virus [3] and in the test with Hepatitis B virus [4] were 3690 µM and 8 µM, respectively.

For `COc1ccc2c3c1-c1c(ccc(O)c1O)C[C@@H]3[N+](C)(C)CC2` [HYPSERPANINE B], the cytotoxic concentration (CC50) in test [1] was > 3620 µM. In addition, the IC50 in the test on Hepatitis B virus [3] and in the test on Hepatitis B virus [4] was > 3620 µM in each case.

Turning to `COC1=CC(=O)[C@]2([C@@H](Cl)C[C@]34NCC[C@]23CC(=O)C(OC)=C4OC)[C@H]1O` [DAURICUMIDINE], the CC50 in test [1] is 1860 µM. The “Ratio CC50/IC50” value in test [2] is on record as <1; in test [5], 4.13. Besides, the IC50 is > 3850 µM in the test on Hepatitis B virus [3] and 450 µM in the test on Hepatitis B virus [4].

Consider `Nc1ccn([C@@H]2CS[C@H](CO)O2)c(=O)n1` [LAMIVUDINE], for which the CC50 in test [1] stood at 30000 µM. The “Ratio CC50/IC50” value in test [2] stood at 1.16; in test [5], 2.56. The figures for the IC50 in the test on Hepatitis B virus [3] and in the test with Hepatitis B virus [4] were 25900 µM and 11700 µM, respectively.

Compound `COc1c(O)cc2c(c1OC)C=[N+](C)CC2` [PHENOLBETAIN] had a CC50 in test [1] of 2180 µM. Besides, the “Ratio CC50/IC50” value in test [2] and in test [5] was <1 throughout. Besides, the IC50 with Hepatitis B virus [3] is > 4520 µM; with Hepatitis B virus [4], 2370 µM.

For `COC1=CC(=O)[C@@]2([C@@H]1O)[C@@H](Cl)C[C@]13NCC[C@]21CC(=O)C(OC)=C3OC` [ACUTUMIDINE], the CC50 in test [1] was > 2890 µM. Further, the IC50 in the test with Hepatitis B virus [3] is > 2890 µM; in the test on Hepatitis B virus [4] it was 2020 µM. In test [5], the “Ratio CC50/IC50” value is >1.31.

`COC1=CC(=O)[C@]2(CC[C@@]34C(OC)=C(OC)C(=O)C[C@]32CCN4C)[C@@H]1O` [DECHLOROACUTUMINE] had a CC50 in test [1] of 2930 µM. In addition, the IC50 with Hepatitis B virus [3] and in the test on Hepatitis B virus [4] was > 2930 µM throughout.

For the compound `COC1=CC(=O)[C@@]2([C@@H]1O)[C@@H](Cl)C[C@@]13C(OC)=C(OC)C(=O)C[C@@]21CCN3C` [ACUTUMINE], the CC50 in test [1] was > 2990 µM. Moreover, the IC50 with Hepatitis B virus [3] was > 2980 µM; in the test with Hepatitis B virus [4] it was > 2990 µM.

Compound `CCN(CC)C1=CC(=O)[C@]2([C@@H](Cl)C[C@@]34C(OC)=C(OC)C(=O)C[C@@]23CCN4C)[C@H]1O` [HYPSERPANINE A] registered a CC50 in test [1] of 2230 µM. The “Ratio CC50/IC50” value in test [2] was <1; in test [5] it was 1.57. Moreover, the IC50 in the test with Hepatitis B virus [3] was > 2870 µM; in the test with Hepatitis B virus [4], 1420 µM.

As for `COc1cc2c(cc1O)C[C@H]1c3c(cc(OC)c(O)c3-2)CC[N+]1(C)C` [LAURIFOLINE], the CC50 in test [1] is > 3680 µM. Also, the IC50 in the test with Hepatitis B virus [3] and in the test with Hepatitis B virus [4] was > 3680 µM each time.

For `COc1cc2c3c(c1OC)C1(C=CC(=O)C=C1)C[C@H]3N(C)CC2` [PRONUCIFERINE], in test [1], the CC50 amounted to 50 µM. Also, the “Ratio CC50/IC50” value in test [2] is reported as <1; in test [5] it was 1.19. Further, the IC50 is > 4180 µM in the test with Hepatitis B virus [3] and 42 µM in the test with Hepatitis B virus [4].

As to `COc1ccc2c(c1O)-c1c(O)c(OC)cc3c1[C@H](C2)[N+](C)(C)CC3` [MAGNOFLORINE], the CC50 in test [1] is > 4110 µM. Further, the IC50 in the test with Hepatitis B virus [3] and in the test with Hepatitis B virus [4] was > 4110 µM throughout.

`COc1ccc(C[C@H]2c3cc(O)c(OC)cc3CCN2C)cc1O` [(S)-RETICULINE] registered a CC50 in test [1] of 1910 µM. In addition, the “Ratio CC50/IC50” value in test [2] and in test [5] was <1 in each case. Further, the IC50 with Hepatitis B virus [3] is > 2990 µM; with Hepatitis B virus [4], 2140 µM.

The record behind these values is ChEMBL document CHEMBL1149710, “Two new alkaloids and active anti-hepatitis B virus constituents from Hypserpa nitida” (Bioorg Med Chem Lett, 2007).
